Data set [1] can be described thus: single-dose lethality test in mice. It is filed as in vivo. The note with it: 2500 mg/kg once; groups of 5 mice. As for the experimental part: In a test in mice (each group consisting of 5 mice), when the compounds (I), for example, 5-(3-ethoxy-4-pentyloxyphenyl)thiazolidine-2,4-dione and 5-(3-ethoxy-4-isopentyloxyphenyl)thiazolidine-2,4-dione were administered at a dose of 2500 mg/kg once, no mouse died.

Data set [2] deals with T1, aldose reductase (Homo sapiens, UniProt P15121).
T1 construct: partially purified aldose reductase preparation from human placenta; from tissue; host or cells: human placenta
Description: aldose reductase activity, partially purified preparation from human placenta. It is filed as biochemical. The note with it: 10^-6 M. As for the experimental part:
The effect of the thiazolidine derivative (I) on aldose reductase activity was assayed after the method described in S. Haymen et al., Journal of Biological Chemistry, Vol. 240, 877 (1965) and Jin H. Kinoshita et al., Metabolism, Vol. 28, Nr. 4, Suppl 1, 462 (1979), etc. The enzyme used in the assay was a partially purified aldose reductase preparation from human placenta. The results for the respective compounds were expressed as % inhibition at the concentration of 10^-6 mole and are shown in Table 2.

The subject of data set [3] is rat lens. Description: swelling inhibitory effect in rat lens culture assay. The note with it: 10^-6 M. It is filed as cell-based. How it is done:
The swelling inhibitory effect of each compound in a rat lens culture assay was evaluated by the method described in H. Obazawa et al., Invest. Ophthalmol Vol. 13, Nr. 3, 204 (1974).
The result for each compound was expressed as the % inhibition of swelling into the lens at the concentration of 10^-6 mole and are shown in Table 3.

Structures are written as SMILES.

Regarding `CCOc1cc(C2SC(=O)NC2=O)ccc1OCCC(C)C` (stereo not drawn) [5-(3-ethoxy-4-isopentyloxyphenyl)thiazolidine-2,4-dione], in data set [1], the death of mice entry was “no mouse died”.

As usually defined, the inhibition is the relative decrease from the control value, in per cent. As to `CCCCCOc1ccc(C2SC(=O)NC2=O)cc1OCC` (stereo not drawn) [Example 4, 5-(3-ethoxy-4-pentyloxyphenyl)-thiazolidine-2,4-dione], the death of mice result in data set [1] is given as “no mouse died”. For the same compound, the figures for the inhibition at 1 µM in data set [2] and in data set [3] were 34.6% and 44.6%, respectively.

As to `Cc1ccc(C2SC(=O)NC2=O)cc1C` (stereo not drawn) [Example 5, 5-(3,4-dimethylphenyl)thiazolidine-2,4-dione], in data set [2], the inhibition at 1 µM was found to be 35.8%.

For the compound `COc1ccc(C2SC(=O)NC2=O)cc1OC` (stereo not drawn) [Example 10 - No. 1], the results for the inhibition at 1 µM in data set [2] and in data set [3] were 57.1% and 30.3%, respectively.

On to `CCOc1ccc(C2SC(=O)NC2=O)cc1OCC` (stereo not drawn) [Example 10 - No. 2], for which the inhibition at 1 µM in data set [2] amounted to 57%; in data set [3] it was 37%.

The compound `CCOc1cc(C2SC(=O)NC2=O)ccc1O` (stereo not drawn) [Example 10 - No. 3] yielded an inhibition at 1 µM in data set [2] of 51.6%.

For `CCOc1cc(C2SC(=O)NC2=O)ccc1OC(C)=O` (stereo not drawn) [Example 10 - No. 4], the inhibition at 1 µM was found to be 59% in data set [2] and 23.7% in data set [3].

`CC(=O)Oc1ccc(C2SC(=O)NC2=O)cc1OC(C)=O` (stereo not drawn) [Example 10 - No. 5] yielded an inhibition at 1 µM in data set [2] of 76.9%.

In data set [2], `O=C1NC(=O)C(c2ccc(O)c(O)c2)S1` (stereo not drawn) [Example 10 - No. 6] yielded an inhibition at 1 µM of 41.8%.

Take `O=C1NC(=O)C(c2ccc3c(c2)OCO3)S1` (stereo not drawn) [Example 10 - No. 7]: the inhibition at 1 µM in data set [2] turned out to be 47.4%.

For the compound `CCCCOc1ccc(C2SC(=O)NC2=O)cc1OCCCC` (stereo not drawn) [Example 10 - No. 8], the inhibition at 1 µM in data set [2] is 51.7%.

In data set [2], `CCCCOc1ccc(C2SC(=O)NC2=O)cc1OCC` (stereo not drawn) [Example 10 - No. 9] had an inhibition at 1 µM of 55.2%.

As for `CCCOc1ccc(C2SC(=O)NC2=O)cc1OCCC` (stereo not drawn) [Example 10 - No. 10], the inhibition at 1 µM in data set [2] was 53.5%.

Turning to `CCCCCCOc1ccc(C2SC(=O)NC2=O)cc1OCC` (stereo not drawn) [Example 10 - No. 12], the values for the inhibition at 1 µM in data set [2] and in data set [3] were 37.7% and 33%, respectively.

As for `CCOc1cc(C2SC(=O)NC2=O)ccc1OCCC(C)C` (stereo not drawn) [Example 10 - No. 13], the inhibition at 1 µM in data set [2] is 34%; in data set [3], 25.3%.

For `CCOc1cc(C2SC(=O)NC2=O)ccc1OCC(C)(C)C` (stereo not drawn) [Example 10 - No. 14], the inhibition at 1 µM in data set [2] is 28%; in data set [3], 57.2%.

Compound `CCOc1cc(C2SC(=O)NC2=O)ccc1OCCCC(C)C` (stereo not drawn) [Example 10 - No. 15] returned an inhibition at 1 µM in data set [2] of 60.6%.

Regarding `CCCCOc1ccc(C2SC(=O)NC2=O)cc1OC` (stereo not drawn) [Example 10 - No. 16], the inhibition at 1 µM in data set [2] stood at 38.7%.

In data set [2], `CCCCCOc1ccc(C2SC(=O)NC2=O)cc1OC` (stereo not drawn) [Example 10 - No. 17] had an inhibition at 1 µM of 40.6%.

In turn, `CCCCCCOc1ccc(C2SC(=O)NC2=O)cc1OC` (stereo not drawn) [Example 10 - No. 18] showed an inhibition at 1 µM in data set [2] of 32.2%.

`COc1cc(C2SC(=O)NC2=O)ccc1OCCCC(C)C` (stereo not drawn) [Example 10 - No. 19]: in data set [2], at 1 µM the inhibition was 68.1%.

The compound `CCCCCOc1cc(C2SC(=O)NC2=O)ccc1OC` (stereo not drawn) [Example 10 - No. 20] displayed an inhibition at 1 µM in data set [2] of 30%.

The record behind these values is patent publication US4387101A, “Thiazolidine derivatives and their use” (Takeda Chemical Industries, Ltd., priority 1980, dated 1983).
